ChEMBL document CHEMBL6177948, “Discovery of potential Leonurine-based therapeutic lead MJ210 attenuates Parkinson's disease pathogenesis via NF-κB and MAPK pathways: Mechanistic insights from in vitro and in vivo rotenone models” (Eur J Med Chem, 2025)

Test system: SH-SY5Y
Experiment: Neuroprotective activity against rotenone-induced cytotoxicity in human SH-SY5Y cells assessed as increase in cell viability at 1 to 20 uM incubated for 24 hrs by MTT assay relative to control
Format: functional
Conditions: dose 1-20 µM

SMILES | Activity [%]
COc1cc(CCC(=O)Nc2nc3ccccc3s2)cc(OC)c1OC(=O)C1CCCN1C(=O)OC(C)(C)C (stereo unspecified) | >80
COc1ccc(N2CCN(C(=O)CCc3cc(OC)c(OC(=O)c4ccccn4)c(OC)c3)CC2)cc1 | >80
COc1cc(/C=C/C(=O)N2CCCCC2)cc(OC)c1OC(=O)c1ccccn1 | >80
COc1cc(CCC(=O)N2CCN(c3ccccc3)CC2)cc(OC)c1OC(=O)c1ccccn1 | >80
COc1cc(CCC(=O)N2CCCCC2)cc(OC)c1OC(=O)C1CCCN1C(=O)OC(C)(C)C (stereo unspecified) | >80
COc1cc(CCC(=O)NCc2ccc3c(c2)OCO3)cc(OC)c1OC(=O)c1ccccn1 | >80
